These results are taken from patent US8592581B2, “Trisubstituted purine derivatives” (Cyclacel Limited, priority 2007, dated 2013).

The structures appear in SMILES notation.

As a reminder, the IC50 is the point on the concentration scale where inhibition reaches its midpoint. The term half-life denotes the time needed for the level to fall by half in the phase considered.

One series addresses CYP1A (Homo sapiens, UniProt P05177). In words: CYP1A inhibition, human liver microsomes, ethoxyresorufin. It counts as in vitro ADME. As for the experimental part: Six test compound concentrations (0.05, 0.25, 0.5, 2.5, 5, 25 μM in DMSO; final DMSO concentration=0.35%) were incubated with human liver microsomes (0.25 mg/mL) and NADPH (1 mM) in the presence of the probe substrate ethoxyresorufin (0.5 μM) for 5 min at 37° C. The selective CYP1A inhibitor, alpha-naphthoflavone, was screened alongside the test compounds as a positive control.
(§1) For the CYP1A incubations, the reactions were terminated by the addition of methanol, and the formation of the metabolite, resorufin, was monitored by fluorescence (excitation wavelength=535 nm, emission wavelength=595 nm). For the CYP2C9, CYP2C19, CYP2D6, and CYP3A4 incubations, the reactions were terminated by the addition of methanol containing internal standard. The samples were then centrifuged, and the supernatants were combined, for the simultaneous analysis of 4-hydroxytolbutamide, 4-hydroxymephenyloin, dextrorphan, and 1-hydroxymidazolam plus internal standard by LC-MS/MS using generic LC-MS/MS conditions. Formic acid in deionised water (final concentration=0.1%) was added to the final sample prior to analysis.
Background: Microsomes from liver hold many membrane-bound enzymes, among them those of drug oxidation.

For series [1], the target named is T1, CYP2D6 (Homo sapiens (Human), UniProt P10635). In words: Cytochrome P450 substrate identification (Bactosomes) CYP2D6. It counts as in vitro ADME. As to conditions: pH 7.4, 5 μM test compound, up to 45 min, read-out: half life in the presence of CYP2D6. As to the method:
(§2) cDNA expressed human CYP450 enzyme preparations co-expressed with human NADPH cytochrome P450 reductase (Bactosomes™) were supplied by Cypex Ltd. Bactosomes™ (final P450 concentration CYP1A2 100 pmol/mL, CYP2C8 50 pmol/mL, CYP2C9 25 pmol/mL, CYP2C19 100 pmol/mL, CYP2D6 50 pmol/mL and CYP3A4 25 pmol/mL), 0.1M phosphate buffer pH7.4 and test compound (final substrate concentration=5 μM; final DMSO concentration=0.25%) were pre-incubated at 37° C. prior to the addition of NADPH (final concentration=1 mM) to initiate the reaction. Incubations were also performed using control bactosomes (no P450 enzymes present) to reveal any non-enzymatic degradation. The final incubation volume was 25 μL. Compounds known to be metabolised specifically by each CYP450 isoform were used as control compounds.
(§3) Each compound was incubated singly for 0, 5, 15, 30 and 45 min with each CYP isoform. The reactions were stopped by the addition of 50 μL methanol containing internal standard at the appropriate time points. The incubation plates were centrifuged at 2500 rpm for 20 min at 4° C. to precipitate the protein. Following protein precipitation, the sample supernatants were combined in cassettes of up to four compounds and analysed using generic LC-MS/MS conditions.
(§4) The In peak area ratio (which has been corrected for any loss in the incubations with the control bactosomes) was plotted against time and the gradient of the line determined.
(§5) The elimination rate constant (k)=(−gradient)

Series [2] has as its target T2, CYP3A4 (Homo sapiens (Human), UniProt P08684). As to the kind of experiment: CYP3A4 inhibition, human liver microsomes, midazolam. It counts as in vitro ADME. The following applies: human liver microsomes. As for the experimental part:
Six test compound concentrations (0.05, 0.25, 0.5, 2.5, 5, 25 μM in DMSO; final DMSO concentration 0.26%) were incubated with human liver microsomes (0.25 mg/mL) and NADPH (1 mM) in the presence of the probe substrate midazolam (2.5 μM) for 5 min at 37° C. The selective CYP3A4 inhibitor, ketoconazole, was screened alongside the test compounds as a positive control.
as §1

Series [3] addresses T3, CYP2C9 (Homo sapiens (Human), UniProt P11712). In words: CYP2C9 inhibition, human liver microsomes, tolbutamide. It counts as in vitro ADME. As for the experimental part:
Six test compound concentrations (0.05, 0.25, 0.5, 2.5, 5, 25 μM in DMSO; final DMSO concentration=0.25%) were incubated with human liver microsomes (1 mg/mL) and NADPH (1 mM) in the presence of the probe substrate tolbutamide (120 μM) for 60 min at 37° C. The selective CYP2C9 inhibitor, sulphaphenazole, was screened alongside the test compounds as a positive control.
as §1

Series [4] concerns the target T1, CYP2D6. As to the kind of experiment: CYP2D6 inhibition, human liver microsomes, dextromethorphan. It counts as in vitro ADME. As to the method:
Six test compound concentrations (0.05, 0.25, 0.5, 2.5, 5, 25 μM in DMSO; final DMSO concentration=0.25%) were incubated with human liver microsomes (0.5 mg/mL) and NADPH (1 mM) in the presence of the probe substrate dextromethorphan (5 μM) for 30 min at 37° C. The selective CYP2D6 inhibitor, quinidine, was screened alongside the test compounds as a positive control.
as §1

The target of series [5] is T3, CYP2C9. In words: Cytochrome P450 substrate identification (Bactosomes) CYP2C9. It counts as in vitro ADME. The following applies: pH 7.4, 5 μM test compound, up to 45 min, read-out: half life in the presence of CYP2C9. As for the experimental part: as §2, §3, §4, §5
Series [6] addresses T4, CYP2C19 (Homo sapiens (Human), UniProt P33261). In words: CYP2C19 inhibition, human liver microsomes, mephenyloin. It counts as in vitro ADME. As for the experimental part: Six test compound concentrations (0.05, 0.25, 0.5, 2.5, 5, 25 μM in DMSO; final DMSO concentration=0.25%) were incubated with human liver microsomes (0.5 mg/mL) and NADPH (1 mM) in the presence of the probe substrate mephenyloin (25 μM) for 60 min at 37° C. The selective CYP2C19 inhibitor, tranylcypromine, was screened alongside the test compounds as a positive control.
as §1

The target of another series is CYP2C8 (Homo sapiens (Human), UniProt P10632). As to the kind of experiment: Cytochrome P450 substrate identification (Bactosomes) CYP2C8. It counts as in vitro ADME. As to conditions: pH 7.4, 5 μM test compound, up to 45 min, read-out: half life in the presence of CYP2C8. As to the method:
as §2, §3, §4, §5

Series [7] addresses T4, CYP2C19. In words: Cytochrome P450 substrate identification (Bactosomes) CYP2C19. As to conditions: pH 7.4, 5 μM test compound, up to 45 min, read-out: half life in the presence of CYP2C19. It counts as in vitro ADME. As to the method:
as §2, §3, §4, §5

In series [8] the target is T2, CYP3A4. As to the kind of experiment: Cytochrome P450 substrate identification (Bactosomes) CYP3A4. It counts as in vitro ADME. The following applies: human, pH 7.4; Bactosomes, 5 μM test compound, up to 45 min; read-out: half life in the presence of CYP3A4. As for the experimental part: as §2, §3, §4, §5
The next series relates to Mcl-1. In words: Mcl-1 downregulation in H460 cells by Western blotting. It counts as cell-based. The following applies: H460 cells, 24 hours, top concentration close to IC50. As to the method:
The media was removed and the adherent cells washed with 5 ml PBS. […] Proteins were transferred to nitrocellulose membranes (Schleicher & Schuell, Dassel, Germany) using wet electrophoretic transfer. Membranes were stained with Ponceau S to confirm equal loading before blocking in 5% nonfat milk in PBS with 0.05% Tween 20 (PBSTM) for 2 hours. Membranes were incubated overnight at 4° C. with primary antibody (rabbit polyclonal antibody to Mcl-1, Santa Cruz), diluted 1:1000 in PBSTM. Membranes were washed 2×5 minute followed by 2×10 minute in PBS and 0.05% Tween 20 (PBST) and incubated for 1 hour in PBSTM containing horseradish peroxidase-conjugated secondary antibody. Membranes were washed as before and incubated with enhanced chemiluminescence solution (Amersham) and exposed to X-ray film (Amersham).
In a second experiment the effect of additional compounds on Mcl-1 levels was investigated.
A general note: Immunoblotting shows a protein as a band on a membrane.

T1 sequence (P10635 whole entry): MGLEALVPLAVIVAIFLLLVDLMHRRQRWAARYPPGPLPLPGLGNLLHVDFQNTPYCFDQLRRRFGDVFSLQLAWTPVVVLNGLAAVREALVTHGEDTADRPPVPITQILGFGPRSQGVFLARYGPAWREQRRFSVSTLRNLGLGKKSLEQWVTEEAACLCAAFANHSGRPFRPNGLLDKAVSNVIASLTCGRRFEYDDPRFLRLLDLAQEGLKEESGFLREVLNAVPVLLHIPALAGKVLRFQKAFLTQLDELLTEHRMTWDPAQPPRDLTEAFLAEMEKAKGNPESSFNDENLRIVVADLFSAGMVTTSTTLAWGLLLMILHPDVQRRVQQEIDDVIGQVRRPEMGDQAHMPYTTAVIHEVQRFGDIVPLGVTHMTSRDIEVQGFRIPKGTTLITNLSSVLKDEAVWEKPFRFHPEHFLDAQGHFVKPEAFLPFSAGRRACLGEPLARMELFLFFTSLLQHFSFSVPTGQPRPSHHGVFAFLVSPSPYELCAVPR
CYP1A, sequence (P05177 2-516 limits assumed): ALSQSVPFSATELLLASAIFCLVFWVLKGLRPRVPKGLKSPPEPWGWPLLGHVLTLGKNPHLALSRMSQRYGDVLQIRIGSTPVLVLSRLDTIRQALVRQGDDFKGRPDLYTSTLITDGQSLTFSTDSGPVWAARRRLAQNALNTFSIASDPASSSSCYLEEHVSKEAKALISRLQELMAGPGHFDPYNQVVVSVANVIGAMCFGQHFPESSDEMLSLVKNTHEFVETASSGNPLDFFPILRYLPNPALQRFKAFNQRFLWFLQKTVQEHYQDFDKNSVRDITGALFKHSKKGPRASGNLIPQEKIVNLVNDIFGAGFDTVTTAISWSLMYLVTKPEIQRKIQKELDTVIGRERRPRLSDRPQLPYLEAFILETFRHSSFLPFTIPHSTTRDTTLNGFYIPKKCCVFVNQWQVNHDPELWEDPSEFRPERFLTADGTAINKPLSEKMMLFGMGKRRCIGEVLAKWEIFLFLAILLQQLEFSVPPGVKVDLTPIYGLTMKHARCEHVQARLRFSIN
T4 sequence (P33261 whole entry): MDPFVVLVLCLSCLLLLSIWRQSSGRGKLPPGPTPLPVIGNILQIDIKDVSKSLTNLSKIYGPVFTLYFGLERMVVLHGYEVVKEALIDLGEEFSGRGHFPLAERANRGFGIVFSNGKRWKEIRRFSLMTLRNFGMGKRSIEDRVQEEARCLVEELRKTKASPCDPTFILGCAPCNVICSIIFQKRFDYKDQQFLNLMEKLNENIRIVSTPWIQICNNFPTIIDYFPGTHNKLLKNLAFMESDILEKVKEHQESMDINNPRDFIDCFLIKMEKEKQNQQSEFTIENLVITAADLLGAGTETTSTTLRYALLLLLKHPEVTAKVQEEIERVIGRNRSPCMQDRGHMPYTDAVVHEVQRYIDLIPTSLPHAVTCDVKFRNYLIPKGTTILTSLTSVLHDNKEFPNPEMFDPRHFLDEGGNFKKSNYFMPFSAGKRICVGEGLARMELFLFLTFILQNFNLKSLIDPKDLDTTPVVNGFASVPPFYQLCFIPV
CYP2C8, sequence (P10632 whole entry): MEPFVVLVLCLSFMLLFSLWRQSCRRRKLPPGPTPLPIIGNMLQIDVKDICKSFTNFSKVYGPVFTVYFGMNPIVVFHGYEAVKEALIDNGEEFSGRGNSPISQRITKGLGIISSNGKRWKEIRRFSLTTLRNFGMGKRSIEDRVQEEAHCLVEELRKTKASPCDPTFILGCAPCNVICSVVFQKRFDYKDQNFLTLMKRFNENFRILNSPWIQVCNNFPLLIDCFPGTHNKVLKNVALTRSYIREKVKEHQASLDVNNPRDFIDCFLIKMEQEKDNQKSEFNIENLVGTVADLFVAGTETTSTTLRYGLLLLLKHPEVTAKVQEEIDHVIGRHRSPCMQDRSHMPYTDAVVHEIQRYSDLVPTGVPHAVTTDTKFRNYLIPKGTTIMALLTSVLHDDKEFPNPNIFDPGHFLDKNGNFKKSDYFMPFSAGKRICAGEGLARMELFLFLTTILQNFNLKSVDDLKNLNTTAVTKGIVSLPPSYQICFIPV
T3 sequence (P11712 whole entry): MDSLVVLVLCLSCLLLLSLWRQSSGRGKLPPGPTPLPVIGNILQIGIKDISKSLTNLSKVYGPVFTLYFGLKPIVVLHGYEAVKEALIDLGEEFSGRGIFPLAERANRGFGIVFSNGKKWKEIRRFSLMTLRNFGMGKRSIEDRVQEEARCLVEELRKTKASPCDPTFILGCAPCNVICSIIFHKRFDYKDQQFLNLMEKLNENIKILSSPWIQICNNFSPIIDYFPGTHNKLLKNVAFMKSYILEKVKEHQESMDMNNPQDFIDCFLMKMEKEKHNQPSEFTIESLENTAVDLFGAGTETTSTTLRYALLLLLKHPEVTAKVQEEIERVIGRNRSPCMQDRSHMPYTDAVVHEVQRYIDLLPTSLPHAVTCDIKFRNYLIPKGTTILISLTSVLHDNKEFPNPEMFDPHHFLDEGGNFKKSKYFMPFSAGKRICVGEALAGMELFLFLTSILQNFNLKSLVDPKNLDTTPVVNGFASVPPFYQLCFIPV
T2 sequence (P08684 whole entry): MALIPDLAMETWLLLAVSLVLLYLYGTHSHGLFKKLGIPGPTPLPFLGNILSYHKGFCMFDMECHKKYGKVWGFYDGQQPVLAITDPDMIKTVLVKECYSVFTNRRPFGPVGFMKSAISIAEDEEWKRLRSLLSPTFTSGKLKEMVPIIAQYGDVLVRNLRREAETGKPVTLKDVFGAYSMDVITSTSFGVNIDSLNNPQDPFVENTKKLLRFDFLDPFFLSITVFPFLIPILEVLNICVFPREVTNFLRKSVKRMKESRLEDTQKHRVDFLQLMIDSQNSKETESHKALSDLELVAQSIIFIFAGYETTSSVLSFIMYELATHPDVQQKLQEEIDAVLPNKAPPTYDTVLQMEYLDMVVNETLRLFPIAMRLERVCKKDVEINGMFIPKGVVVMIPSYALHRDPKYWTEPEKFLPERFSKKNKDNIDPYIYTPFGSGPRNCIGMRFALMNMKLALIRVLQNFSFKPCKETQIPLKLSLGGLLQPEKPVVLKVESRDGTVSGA

In the case of `CC[C@@H](Nc1nc(NCc2cccnc2)c2ncn(C(C)C)c2n1)C(C)(C)O` [Compound [A1]], on CYP1A, the IC50 at 5 min was above 25 µM. Further, the half-life at 5 μM was above 45 min on CYP2D6 [1]; above 45 min at CYP2C9 [5]; above 45 min at CYP2C8; 58.3 min on CYP2C19 [7]; 28.3 min at CYP3A4 [8]. Further, the IC50 is 1.63 µM at CYP3A4 [2], above 25 µM against CYP2C9 [3], above 25 µM on CYP2D6 [4] and 19.9 µM on CYP2C19 [6].

In the case of `CC[C@H](CO)Nc1nc(NCc2ccccc2)c2ncn(C(C)C)c2n1` [Seliciclib, seliciclib, reference compound], the “changes in Mcl-1 levels (in words)” value in the series on Mcl-1 is recorded as “very modest changes”.

On CYP1A, `CC[C@H](Nc1nc(NCc2cccnc2)c2ncn(C(C)C)c2n1)C(C)(C)O` [[A2]] yielded an IC50 at 5 min above 25 µM. Also, the half-life at 5 μM at CYP2D6 [1] was above 45 min; on CYP2C9 [5], above 45 min; on CYP2C8, above 45 min; at CYP2C19 [7] it was above 45 min; on CYP3A4 [8], 32.6 min. For the same molecule, the IC50 against CYP3A4 [2] was 0.48 µM; against CYP2C9 [3] it was above 25 µM; on CYP2D6 [4], above 25 µM; against CYP2C19 [6] it was above 25 µM.

`CC[C@H](Nc1nc(NCc2cccnc2)c2ncn(C(C)C)c2n1)[C@@H](C)O` [[A3]] registered an IC50 at 5 min against CYP1A above 25 µM. The half-life at 5 μM on CYP2D6 [1] is above 45 min; at CYP2C9 [5], above 45 min; at CYP2C8 it was above 45 min; on CYP2C19 [7], above 45 min; on CYP3A4 [8], 18 min. Besides, the IC50 against CYP3A4 [2] is 1.88 µM; on CYP2C9 [3], above 25 µM; on CYP2D6 [4], above 25 µM; on CYP2C19 [6], above 25 µM.
